# Laboratory results: US7943603B2, “Medical uses of a selective estrogen receptor modulator in combination with sex steroid precursors” (Endorecherche, Inc., priority 1998, dated 2011)
# Assays:
# ovariectomized rats = conditions: treatment with 5-diol
# [1] = Example 5 table: serum, urinary and GnRH mRNA parameters in OVX groups; type: in vivo; conditions: doses not given; for LH: LD: Limit of Detection: 0.01 ng/ml
# estrogen receptor = target: T1, estrogen receptor (Homo sapiens, UniProt P03372); assay: Testing of antiestrogens for function as SERM
# T1 sequence (P03372 1-595): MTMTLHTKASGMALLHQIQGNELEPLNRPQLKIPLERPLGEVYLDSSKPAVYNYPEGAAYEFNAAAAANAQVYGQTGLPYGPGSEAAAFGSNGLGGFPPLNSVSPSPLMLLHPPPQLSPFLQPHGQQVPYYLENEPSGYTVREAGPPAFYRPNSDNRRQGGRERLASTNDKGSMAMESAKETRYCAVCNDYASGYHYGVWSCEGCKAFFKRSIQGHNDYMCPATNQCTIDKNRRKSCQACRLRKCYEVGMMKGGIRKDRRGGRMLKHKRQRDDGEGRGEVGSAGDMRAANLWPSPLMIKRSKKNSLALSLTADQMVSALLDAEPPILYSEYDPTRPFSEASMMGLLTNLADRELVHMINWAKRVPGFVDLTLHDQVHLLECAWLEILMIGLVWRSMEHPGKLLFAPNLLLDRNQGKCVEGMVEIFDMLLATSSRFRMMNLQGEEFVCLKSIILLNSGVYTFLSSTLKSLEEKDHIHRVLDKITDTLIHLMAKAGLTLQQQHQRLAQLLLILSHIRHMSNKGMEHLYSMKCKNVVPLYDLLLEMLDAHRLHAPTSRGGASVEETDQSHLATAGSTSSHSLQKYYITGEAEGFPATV
# Solid state stability = type: physicochemical
# [2] = test system: human ZR-75-1 breast tumor xenografts; assay: Growth of human ZR-75-1 breast tumor xenografts in OVX nude mice supplemented with estrone; conditions: E1 0.5 μg s.c. daily alone, OVX nude mice, 9.5 months
# postmenopausal women = conditions: cited from earlier work
Structure (SMILES),Cholesterol [1] [mmol/L],GnRH mRNA levels silver grains per cell [1] [silver grains per cell],Serum Alkaline phosphatase [1] [IU/L],Triglycerides [1] [mmol/L],Urinary OH-proline/creatinin [1] [μmol/mmol],LH [1] [ng/mL],other results
"C[C@]12CC[C@H]3[C@@H](CC=C4C[C@@H](O)CC[C@@]43C)[C@@H]1CC[C@@H]2O [5-diol, androst-5-ene-3β,17β-diol]",,,,,,,serum alkaline phosphatase activity (ovariectomized rats): marked stimulation
C[C@]12CCC(=O)C[C@@H]1CC[C@@H]1[C@@H]2CC[C@]2(C)[C@@H](O)CC[C@@H]12 [DHT],2.44 ± 0.16,38.8 ± 0.7,56 ± 5,0.9 ± 0.1,7.8 ± 0.7,1.55 ± 0.27,
CC/C(=C(/c1ccc(OCCN(C)C)cc1)c1cccc(O)c1)c1ccccc1 [Droloxifene],,,,,,,function as SERM (estrogen receptor): found to function as SERMs
"C[C@]12CC[C@@H]3c4ccc(O)cc4CC[C@H]3[C@@H]1CC[C@@H]2O [E2, 17β-estradiol]",2.02 ± 0.15,40.4 ± 0.8,41 ± 5,0.8 ± 0.1,9.2 ± 0.9,2.37 ± 0.45,
"CC1=C(c2ccc(O)cc2)[C@H](c2ccc(OCCN3CCCCC3)cc2)Oc2cc(O)ccc21.Cl [EM-01538, (S)-(+)-7-hydroxy-3-(4′-hydroxyphenyl)-4-methyl-2-(4″-(2′″-piperidinoethoxy)phenyl)-2H-1-benzopyran hydrochloride]",,,,,,,solid state stability (Solid state stability): good solid state stability
"C[C@]12CC[C@@H]3c4ccc(O)cc4C[C@@H](CCCCCCCCC[S+]([O-])CCCC(F)(F)C(F)(F)F)[C@H]3[C@@H]1CC[C@@H]2O (stereo partly shown) [ICI 182,780]",,,,,,,function as SERM (estrogen receptor): found not to function as SERMs
CC(=O)O[C@]1(C(C)=O)CC[C@H]2[C@@H]3C[C@H](C)C4=CC(=O)CC[C@]4(C)[C@H]3CC[C@@]21C [MPA],2.55 ± 0.14,35.5 ± 0.7,57 ± 4,1.3 ± 0.1,11.7 ± 1.2,2.51 ± 0.20,
C[C@]12CC[C@@H]3c4ccc(O)cc4CC[C@H]3[C@@H]1CCC2=O [estrone],,,,,,,"Complete response, (%) [2]: 0%; Complete response, number [2]: 0 (0); Partial response, (%) [2]: 0 (0) %; Partial response, number [2]: 0 (0); Progression, number [2]: 14; Stable response, (%) [2]: 12.5%; Stable response, number [2]: 2; Complete response, (%) ([2]; listed as E1): 0 (0) %"
C[C@]12CC[C@H]3[C@@H](CCC4=CC(=O)CC[C@@H]43)[C@@H]1CC[C@@H]2O [nandrolone],,,,,,,patients with androgenic side-effects (postmenopausal women): 50%
